Read-outs that look alike come from different tables or passages of the source.
Columns and labels:
[1] = test system: Fischer 344 tumor-bearing rats; details: for Blood / Bone / Heart / Intestine / Kidney / Liver / Lung / Muscle / Spleen / Stomach / Thyroid / Tumor / Tumor/Blood / Tumor/Lung / Tumor/Muscle: breast tumor-bearing Fischer 344 rats, 10 μCi/rat i.v.; for Tumor/Blood / Tumor/Lung / Tumor/Muscle: ratio
Protocol: Biodistribution studies were conducted at 30 min, 2 and 4 hours.

[2] = test system: breast cancer cells, cell line 13762; assay: In vitro cellular uptake assay; assay type: cell-based
Protocol: After 0.5-4 hours incubation, the cells were washed with phosphate buffered saline 3 times and followed by trypsin to loosen the cells. The cells were counted by a gamma counter.

[3] = tumor-bearing rats, 30 min, 2 and 4 hours

## CC(N)(Cc1ccc(OCCC[18F])cc1)C(=O)O (stereo not drawn) [^18F-FPAMT, 3-^18F-fluoropropyl-α-methyltyrosine]
[1]; 30 min
  Blood: 0.638 ± 0.021 % of injected dose per gram of tissue weight
  Bone: 0.447 ± 0.045 % of injected dose per gram of tissue weight
  Heart: 0.445 ± 0.019 % of injected dose per gram of tissue weight
  Intestine: 0.838 ± 0.058 % of injected dose per gram of tissue weight
  Kidney: 8.060 ± 0.101 % of injected dose per gram of tissue weight
  Liver: 6.542 ± 1.142 % of injected dose per gram of tissue weight
  Lung: 4.812 ± 0.457 % of injected dose per gram of tissue weight
  Muscle: 0.318 ± 0.043 % of injected dose per gram of tissue weight
  Spleen: 0.404 ± 0.023 % of injected dose per gram of tissue weight
  Stomach: 0.440 ± 0.052 % of injected dose per gram of tissue weight
  Thyroid: 0.730 ± 0.126 % of injected dose per gram of tissue weight
  Tumor: 0.454 ± 0.016 % of injected dose per gram of tissue weight
  Tumor/Blood: 0.712 ± 0.013
  Tumor/Lung: 0.095 ± 0.006
  Tumor/Muscle: 1.464 ± 0.138
[1]; 2 h
  Blood: 0.298 ± 0.032 % of injected dose per gram of tissue weight
  Bone: 1.256 ± 0.117 % of injected dose per gram of tissue weight
  Heart: 0.219 ± 0.024 % of injected dose per gram of tissue weight
  Intestine: 0.627 ± 0.209 % of injected dose per gram of tissue weight
  Kidney: 7.721 ± 1.027 % of injected dose per gram of tissue weight
  Liver: 3.587 ± 0.500 % of injected dose per gram of tissue weight
  Lung: 0.541 ± 0.084 % of injected dose per gram of tissue weight
  Muscle: 0.154 ± 0.017 % of injected dose per gram of tissue weight
  Spleen: 0.215 ± 0.029 % of injected dose per gram of tissue weight
  Stomach: 0.190 ± 0.024 % of injected dose per gram of tissue weight
  Thyroid: 0.860 ± 0.045 % of injected dose per gram of tissue weight
  Tumor: 0.312 ± 0.024 % of injected dose per gram of tissue weight
  Tumor/Blood: 1.079 ± 0.171
  Tumor/Lung: 0.599 ± 0.079
  Tumor/Muscle: 2.057 ± 0.176
[1]; 4 h
  Blood: 0.081 ± 0.007 % of injected dose per gram of tissue weight
  Bone: 1.502 ± 0.214 % of injected dose per gram of tissue weight
  Heart: 0.054 ± 0.007 % of injected dose per gram of tissue weight
  Intestine: 0.148 ± 0.015 % of injected dose per gram of tissue weight
  Kidney: 1.467 ± 0.236 % of injected dose per gram of tissue weight
  Liver: 0.930 ± 0.049 % of injected dose per gram of tissue weight
  Lung: 0.105 ± 0.008 % of injected dose per gram of tissue weight
  Muscle: 0.055 ± 0.012 % of injected dose per gram of tissue weight
  Spleen: 0.067 ± 0.009 % of injected dose per gram of tissue weight
  Stomach: 0.070 ± 0.002 % of injected dose per gram of tissue weight
  Thyroid: 1.220 ± 0.260 % of injected dose per gram of tissue weight
  Tumor: 0.069 ± 0.003 % of injected dose per gram of tissue weight
  Tumor/Blood: 0.853 ± 0.036
  Tumor/Lung: 0.658 ± 0.081
  Tumor/Muscle: 1.322 ± 0.341
[1]; [3]
  Tumor/blood ratio as a function of time: increased as a function of time
  Tumor/muscle ratio as a function of time: increased as a function of time
[1]; tumor-bearing rats, 2 hours
  bone uptake (suggesting in vivo defluorination): increased bone uptake
[2]; breast cancer cell line 13762, 0.5 and 2 hours incubation
  cellular uptake compared with ^18F-FDG: slightly higher uptake than ^18F-FDG
[2]; breast cancer cell line 13762, 2 μCi, 0.5-4 hours incubation
  cellular uptake as a function of time: increased uptake

From patent US6824760B2, “Imaging agents, precursors thereof and methods of manufacture” (priority 2001, dated 2004)
